Like-named read-outs stand apart in the source and are kept apart here.

These results are taken from patent US20140066431A1, “Benzoxazepines as Inhibitors of PI3K/mTOR and Methods of Their Use and Manufacture” (Exelixis, Inc., priority 2010, published 2014).

One assay concerns the target PI3Kα (Homo sapiens, UniProt P42336). Kind of assay: PI3K biochemical assay (ATP consumption, luciferase-luciferin). On the procedure: (§1) PI3Kα activity is measured as the percent of ATP consumed following the kinase reaction using luciferase-luciferin-coupled chemiluminescence. Reactions were conducted in 384-well white, medium binding microtiter plates (Greiner). Kinase reactions were initiated by combining test compounds, ATP, substrate (PIP2), and kinase in a 20 μL volume in a buffer solution. The standard PI3Kalpha assay buffer is composed 50 mM Tris, pH 7.5, 1 mM EGTA, 10 mM MgCl2, 1 mM DTT and 0.03% CHAPS. The standard assay concentrations for enzyme, ATP, and substrate are 1.5 nM, 1 μM, and 10 μM, respectively. The reaction mixture was incubated at ambient temperature for approximately 2 h. Following the kinase reaction, a 10 μL aliquot of luciferase-luciferin mix (Promega Kinase-Glo) was added and the chemiluminescence signal measured using a Victor2 plate reader (Perkin Elmer). Total ATP consumption was limited to 40-60% and IC50 values of control compounds correlate well with literature references. Substituting PI3Kα with PI3Kβ, PI3Kγ, or PI3Kδ, the inhibitory activity of the compounds for the other isoforms of I3K were measured.

A further assay concerns PI3Kα-mutated models. Kind of assay: Growth factor induced AKT phosphorylation compared across PI3Kα-mutated models. The class given is cell-based. To be noted: cell lines of Table 6. On the procedure:
Cells were incubated at 37° C., 5% CO2 for 48 h (except MDA-MB-453 cells which were cultured in the absence of CO2). Compounds were serially diluted in DMSO and subsequently diluted in serum-free DMEM. Test compounds were added to cells in serum-free DMEM at a final concentration of 0.3% DMSO and incubated for 3 h. Cells were lysed with 130 μL of ice-cold RIPA lysis buffer (50 mM Tris-HCl, pH 7.5; 0.5% sodium deoxycholic acid; 1% Triton X-100; 0.1% SDS; 150 mM NaCl) with protease and phosphatase inhibitors (1 mM EDTA, 1 mM NaF, 20 mM β-glycerophosphate, 1 mM Na-orthovanadate, Complete-Mini EDTA-free, Roche, 11836170001, and Phosphatase Inhibitor Cocktail I, Sigma, P2850), directly in 96-well plates. Cells were lysed on ice for 60-120 min at 4° C. The supernatants were added directly to capture ELISA plates previously pre-coated with rabbit anti-AKT capture antibody. ELISA assays for pAKT(T308) and total AKT were performed with the pAKT(T308) ELISA kit (Cell Signaling Technology, 7144) and AKT1 ELISA kit (Cell Signaling Technology, 7142). For the pAKT(T308) ELISA, 85 μL of cell lysate was added to each well. For the total AKT1 ELISA, 15 μL of cell lysate and 85 μL of Starting Block buffer (Pierce, 37543) were added to each well.
Cells were incubated at 37° C., 5% CO2 for 48 h (except MDA-MB-453 cells which were cultured in the absence of CO2). […]

The test system of assay [1] is T-47D cells (PI3Kα-H1047R mutant). As to the kind of experiment: pAKT (T308) ELISA assay, T-47D. To be noted: Homo sapiens, T47D. Type of assay: cell-based. Here is the method:
(§2) In another embodiment, the pAKT ELISA Assay was performed by seeding cells onto 96-well plates (Corning, 3904) in their respective growth media at the densities listed in Table 3. Cells were incubated at 37° C., 5% CO2 for 48 h (except MDA-MB-453 cells which were cultured in the absence of CO2). Compounds were serially diluted in DMSO and subsequently diluted in serum-free DMEM. Test compounds were added to cells in serum-free DMEM at a final concentration of 0.3% DMSO and incubated for 3 h. Cells were lysed with 130 μL of ice-cold RIPA lysis buffer (50 mM Tris-HCl, pH 7.5; 0.5% sodium deoxycholic acid; 1% Triton X-100; 0.1% SDS; 150 mM NaCl) with protease and phosphatase inhibitors (1 mM EDTA, 1 mM NaF, 20 mM β-glycerophosphate, 1 mM Na-orthovanadate, Complete-Mini EDTA-free, Roche, 11836170001, and Phosphatase Inhibitor Cocktail I, Sigma, P2850), directly in 96-well plates. Cells were lysed on ice for 60-120 min at 4° C. The supernatants were added directly to capture ELISA plates previously pre-coated with rabbit anti-AKT capture antibody. […] The wells were measured for luminescence using a Wallac plate reader at wavelength of 560 nm. After normalization of pAKT signal to total AKT1 signal, IC50 values were determined relative to the DMSO-treated control.
(In general: ELISA stands for enzyme-linked immunosorbent assay.)

The test system of assay [2] is SK-BR-3 (PI3Kα wild-type). Kind of assay: pAKT (T308) ELISA assay, SK-BR-3. As to conditions: Homo sapiens, PI3Kαwt, hereg, read-out: Cellular pAKT (T308) IC50 SK-BR-3. The class given is cell-based. Here is the method: as §2
For another assay, the target named is PI3Kγ (Homo sapiens, UniProt P48736). Kind of assay: PI3K biochemical assay, PI3Kγ. To be noted: PIP2 as substrate. On the procedure: as §1
For assay [3], the system named is MDA-MB-453 (PI3Kα H1047R). Kind of assay: pAKT (T308) ELISA assay, MDA-MB-453. As to conditions: Homo sapiens, PI3KαH1047R, hereg, read-out: Cellular pAKT (T308) IC50 MDA-MB-453. The class given is cell-based. Here is the method: as §2

Sequence of PI3Kα (P42336 whole entry): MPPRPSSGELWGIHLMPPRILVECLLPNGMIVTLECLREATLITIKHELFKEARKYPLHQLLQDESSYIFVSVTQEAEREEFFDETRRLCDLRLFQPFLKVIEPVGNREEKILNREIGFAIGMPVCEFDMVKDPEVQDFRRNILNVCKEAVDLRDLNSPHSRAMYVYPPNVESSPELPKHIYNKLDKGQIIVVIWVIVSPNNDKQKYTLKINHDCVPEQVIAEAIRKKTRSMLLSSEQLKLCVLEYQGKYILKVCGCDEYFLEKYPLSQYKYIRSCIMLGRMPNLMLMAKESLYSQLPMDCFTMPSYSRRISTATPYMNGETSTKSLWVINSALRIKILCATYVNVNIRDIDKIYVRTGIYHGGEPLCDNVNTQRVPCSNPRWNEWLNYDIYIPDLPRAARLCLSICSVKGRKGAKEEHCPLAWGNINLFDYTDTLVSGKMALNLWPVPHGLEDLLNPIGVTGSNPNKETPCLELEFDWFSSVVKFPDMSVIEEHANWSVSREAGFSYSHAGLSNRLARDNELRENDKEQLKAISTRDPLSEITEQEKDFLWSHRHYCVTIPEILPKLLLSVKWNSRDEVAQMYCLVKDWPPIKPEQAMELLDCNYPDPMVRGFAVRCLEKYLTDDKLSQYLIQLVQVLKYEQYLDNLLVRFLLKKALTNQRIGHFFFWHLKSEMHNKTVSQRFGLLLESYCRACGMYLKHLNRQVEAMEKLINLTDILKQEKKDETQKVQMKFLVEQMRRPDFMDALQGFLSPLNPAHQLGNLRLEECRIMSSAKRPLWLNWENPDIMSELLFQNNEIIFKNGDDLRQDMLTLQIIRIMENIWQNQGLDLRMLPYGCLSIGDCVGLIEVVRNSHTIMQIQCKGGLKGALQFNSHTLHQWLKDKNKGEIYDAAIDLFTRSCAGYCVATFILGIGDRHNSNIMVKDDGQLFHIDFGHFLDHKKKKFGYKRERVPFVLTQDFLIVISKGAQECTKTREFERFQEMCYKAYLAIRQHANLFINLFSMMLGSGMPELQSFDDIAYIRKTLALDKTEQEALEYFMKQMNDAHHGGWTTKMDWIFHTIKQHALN
Sequence of PI3Kα (P27986 whole entry partner): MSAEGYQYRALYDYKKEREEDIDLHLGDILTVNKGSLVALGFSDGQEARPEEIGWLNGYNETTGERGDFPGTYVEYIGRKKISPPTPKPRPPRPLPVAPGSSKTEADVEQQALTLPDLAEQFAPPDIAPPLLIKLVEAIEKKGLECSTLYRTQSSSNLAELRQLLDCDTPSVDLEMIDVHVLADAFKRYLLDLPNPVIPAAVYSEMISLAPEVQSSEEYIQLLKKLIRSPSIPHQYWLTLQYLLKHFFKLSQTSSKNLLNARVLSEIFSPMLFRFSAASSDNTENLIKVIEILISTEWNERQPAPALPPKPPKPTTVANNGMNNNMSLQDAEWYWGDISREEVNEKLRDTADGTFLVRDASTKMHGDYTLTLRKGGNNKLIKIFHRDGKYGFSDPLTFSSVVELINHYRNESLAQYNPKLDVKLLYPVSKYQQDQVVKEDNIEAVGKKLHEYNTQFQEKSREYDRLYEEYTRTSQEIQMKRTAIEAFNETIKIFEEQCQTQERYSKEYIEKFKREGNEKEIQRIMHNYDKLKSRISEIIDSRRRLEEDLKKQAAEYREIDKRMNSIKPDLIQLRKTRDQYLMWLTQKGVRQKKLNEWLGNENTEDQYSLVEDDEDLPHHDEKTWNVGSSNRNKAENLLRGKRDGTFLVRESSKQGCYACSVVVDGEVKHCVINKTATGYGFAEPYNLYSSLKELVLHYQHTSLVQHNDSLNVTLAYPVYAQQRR
Sequence of PI3Kγ (P48736 whole entry): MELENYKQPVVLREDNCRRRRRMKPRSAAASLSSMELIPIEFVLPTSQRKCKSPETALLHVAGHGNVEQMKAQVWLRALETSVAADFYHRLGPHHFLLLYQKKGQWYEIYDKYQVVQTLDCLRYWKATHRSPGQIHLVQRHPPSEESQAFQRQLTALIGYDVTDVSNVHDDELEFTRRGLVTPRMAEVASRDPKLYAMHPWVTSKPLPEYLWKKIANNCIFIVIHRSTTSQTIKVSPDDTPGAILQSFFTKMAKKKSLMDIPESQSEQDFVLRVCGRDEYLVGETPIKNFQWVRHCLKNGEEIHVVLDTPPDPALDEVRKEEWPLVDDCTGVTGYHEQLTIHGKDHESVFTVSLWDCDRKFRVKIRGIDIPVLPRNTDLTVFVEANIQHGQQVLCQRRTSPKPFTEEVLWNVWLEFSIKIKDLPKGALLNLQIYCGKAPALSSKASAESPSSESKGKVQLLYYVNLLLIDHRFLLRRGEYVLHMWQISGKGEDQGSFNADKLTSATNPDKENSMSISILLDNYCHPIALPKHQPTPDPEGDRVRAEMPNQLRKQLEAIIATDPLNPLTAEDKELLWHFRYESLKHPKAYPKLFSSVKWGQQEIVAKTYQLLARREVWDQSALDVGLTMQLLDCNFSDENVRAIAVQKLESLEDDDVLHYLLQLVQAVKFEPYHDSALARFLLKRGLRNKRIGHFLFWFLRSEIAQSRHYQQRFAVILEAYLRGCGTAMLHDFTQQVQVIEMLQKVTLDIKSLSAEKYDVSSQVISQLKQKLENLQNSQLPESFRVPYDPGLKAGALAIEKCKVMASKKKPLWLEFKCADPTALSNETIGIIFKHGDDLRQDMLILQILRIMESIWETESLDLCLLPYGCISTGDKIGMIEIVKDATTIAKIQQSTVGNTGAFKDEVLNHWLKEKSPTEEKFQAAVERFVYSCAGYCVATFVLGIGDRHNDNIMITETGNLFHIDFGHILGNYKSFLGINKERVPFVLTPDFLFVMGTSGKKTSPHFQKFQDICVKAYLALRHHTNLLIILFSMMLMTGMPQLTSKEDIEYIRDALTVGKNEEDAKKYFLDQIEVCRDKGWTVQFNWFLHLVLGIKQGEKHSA

Regarding `Cc1cc(C(C)Nc2ccccc2)c2nc(N3CCOCC3)cc(=O)n2c1` (centres unmarked) [TGX-221, 7-methyl-2-(4-morpholinyl)-9-[1-(phenylamino)ethyl]-4H-pyrido[1,2-a]pyrimidin-4-one], the IC50 (in general, the concentration at which inhibition is half-maximal) is 1.78 µM at PI3Kα (PIP2 as substrate, read-out: PI3K biochemical IC50 PI3Kα); 1.78 µM at PI3Kα (Table 5, read-out: Biochemical IC50 PI3Kα); 27.9 µM in assay [1] (IGF1 stimulation, Table 5, read-out: pAKT (T308) IC50 T-47D PI3Kα H1047R IGF1); 27.9 µM in assay [1] (PI3KαH1047R, IGF1, Table 6, read-out: Cellular pAKT (T308) IC50 T-47D); above 30 µM in assay [2]; 1.68 µM against PI3Kγ. In assay [3], the half-inhibitory concentration (IC50) is above 30 µM. Also, the “effect on PI3Kα mediated activity in these cell models” value in the assay on PI3Kα-mutated models was “no effect”.
